According to patent US7244727B2, “Fused bicyclic nitrogen-containing heterocycles” (Japan Tobacco Inc., priority 2002, dated 2007):
pIC50: −log10 of the molar value.

Columns and labels:
human DGAT1 = biological target: T1, human DGAT1 (Homo sapiens, UniProt O75907); experiment: DGAT Scintillation Proximity Assay (SPA) with membranes of insect cells expressing human flagtag DGAT1; format: biochemical; conditions: read-out: hDGAT1 IC50
T1 construct: made in house; host or cells: insect cells (sf9, sf21 or High Five) infected with baculovirus; total cell membranes
T1 sequence (O75907 1-488): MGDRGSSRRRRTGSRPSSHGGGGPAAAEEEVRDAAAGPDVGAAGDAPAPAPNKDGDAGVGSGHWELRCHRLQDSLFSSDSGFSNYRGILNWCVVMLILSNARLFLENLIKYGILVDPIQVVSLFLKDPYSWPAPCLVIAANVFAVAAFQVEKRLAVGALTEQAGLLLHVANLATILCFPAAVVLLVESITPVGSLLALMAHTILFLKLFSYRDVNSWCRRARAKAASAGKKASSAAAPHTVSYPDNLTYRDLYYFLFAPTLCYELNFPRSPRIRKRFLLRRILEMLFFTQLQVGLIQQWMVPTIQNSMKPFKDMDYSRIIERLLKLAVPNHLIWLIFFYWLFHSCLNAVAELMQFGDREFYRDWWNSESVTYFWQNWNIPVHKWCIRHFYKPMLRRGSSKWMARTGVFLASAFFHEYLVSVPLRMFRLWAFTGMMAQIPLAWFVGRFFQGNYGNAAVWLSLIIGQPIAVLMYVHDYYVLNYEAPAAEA
Description: In such an assay human DGAT1 is cloned from a human liver cDNA library. PCR is used to add a restriction site and flag epitope at the most 5′ end and a restriction site at the 3′ end of the sequence. Thereafter, human flagtag (FT) DGAT1 baculovirus may be generated using a Bac-to-Bac Baculovirus Expression System® (Invitrogen). Insect cells (e.g., sf9, sf2 1, or High Five) are infected for 24 to 72 h and collected by centrifugation. Cell pellets are resuspended in homogenization buffer and lysed using a homogenization device, such as a Microfluidizer. Total cell membranes are collected by ultracentrifugation at 45,000 rpm for 1 h.
A small aliquot (0.2 μg/well) of membrane is incubated with 10 μM compound or mercuric chloride (as positive control for inhibition) in the presence of enzyme substrate, dioleoyl glycerol (200 μM) in 384 well plates, final volume 50 gL per well. […] The reaction is stopped by adding Wheat Germ Agglutinin (WGA) SPA beads (0.2 mg) in mercuric chloride. Cell membranes are allowed to couple to the beads overnight. The signal can be measured using, for example, a Chemiluminescence Image Plate Reader (CLIPR) or TopCount device.

Compound | melting point | pIC50 (human DGAT1)
O=c1[nH]c2ncnc3c2n1C(c1ccc(Br)cc1)CO3 (stereo not drawn) [Example 1-35] | > 220 °C | < 7.00
Nc1ncnc2c1NC(c1ccc(Cl)c(Cl)c1)CO2 (stereo not drawn) [Example 1-36] | 198 to 200 °C | < 7.00
Nc1ncnc2c1NC(c1ccc(Cl)cc1Cl)CO2 (stereo not drawn) [Example 1-37] | > 220 °C | < 7.00
CC1(C)Oc2ncnc(N)c2N=C1c1ccc([C@H]2CC[C@H](CCC(N)=O)CC2)cc1 [Example 2-5] | 244 to 246 °C | 7.00 to 8.00
CC1(C)Oc2ncnc(N)c2NC1c1ccc([C@H]2CC[C@H](CCC(=O)O)CC2)cc1 (stereo partly drawn) [Example 2-6] | > 250 °C | 7.00 to 8.00
CC1(C)Oc2ncnc(N)c2NC1c1ccccc1 (stereo not drawn) [Example 2-8] | > 220 °C | < 7.00
CC1(C)Oc2ncnc3[nH]c(=O)n(c23)C1c1ccc(Br)cc1 (stereo not drawn) [Example 2-11] | > 220 °C | < 7.00
Nc1ncnc2c1N=C(c1ccc(Br)cc1)C1(CCCC1)O2 [Example 2-13] | 184 to 186 °C | < 7.00
Nc1ncnc2c1NC(c1ccc(Br)cc1)C1(CCCC1)O2 (stereo not drawn) [Example 2-14] | 226 to 233 °C | < 7.00
CC1(C)Oc2ncnc(N)c2NC1c1ccc(Cl)cc1 (stereo not drawn) [Example 2-19] | > 230 °C | < 7.00
Cc1ccc(C2Nc3c(N)ncnc3OC2(C)C)cc1 (stereo not drawn) [Example 2-20] | > 230 °C | < 7.00
CC1(C)Oc2ncnc(N)c2NC1c1ccc(F)cc1 (stereo not drawn) [Example 2-21] | > 230 °C | < 7.00
CC1(C)Oc2ncnc(N)c2NC1c1ccc(C2CCCCC2)cc1 (stereo not drawn) [Example 2-22] | > 230 °C | < 7.00
COc1ccc(C2Nc3c(N)ncnc3OC2(C)C)cc1 (stereo not drawn) [Example 2-24] | 225 to 226 °C | < 7.00
Cc1nc(N)c2c(n1)OC(C)(C)C(c1ccc(C3CCCCC3)cc1)=N2 [Example 2-26] | 226 to 227 °C | 7.00 to 8.00
CC1(C)Oc2ncnc(N)c2N=C1c1ccc(-c2ccncc2)cc1 [Example 2-28] | > 250 °C | < 7.00
CC1(C)Oc2ncnc(N)c2N=C1c1ccc(-c2cccnc2)cc1 [Example 2-29] | 231 to 232 °C | < 7.00
CN(C)c1ccc(-c2ccc(C3=Nc4c(N)ncnc4OC3(C)C)cc2)cc1 [Example 2-30] | 210 to 211 °C | < 7.00
CC1(C)Oc2ncnc(N)c2N=C1c1ccc(OC2CCCCC2)cc1 [Example 2-32] | 174 to 175 °C | < 7.00
CCOc1ccc(C2=Nc3c(N)ncnc3OC2(C)C)cc1 [Example 2-38] | 189 to 190 °C | < 7.00
CCOC(=O)C=C1CCC(c2ccc(C3=Nc4c(N)ncnc4OC3(C)C)cc2)CC1 (stereo not drawn) [Example 2-39] | 207 to 208 °C | < 7.00
CC1(C)Oc2ncnc(N)c2N=C1c1ccc(C2CCC(=CC(=O)O)CC2)cc1 (stereo not drawn) [Example 2-40] | > 250 °C | > 8.00
CC1CCC(c2ccc(C3=Nc4c(N)ncnc4OC3(C)C)cc2)CC1 (stereo not drawn) [Example 2-41] | 201 to 209 °C | < 7.00
CC1(C)Oc2ncnc(N)c2N=C1c1ccc(C2CCC(=CC(=O)NCc3ccccc3)CC2)cc1 (stereo not drawn) [Example 2-45] | 142 to 144 °C | 7.00 to 8.00
CCNC(=O)C=C1CCC(c2ccc(C3=Nc4c(N)ncnc4OC3(C)C)cc2)CC1 (stereo not drawn) [Example 2-47] | 229 to 230 °C | 7.00 to 8.00
CC(C)(C)OC(=O)CNC(=O)C=C1CCC(c2ccc(C3=Nc4c(N)ncnc4OC3(C)C)cc2)CC1 (stereo not drawn) [Example 2-52] | 212 to 215 °C | 7.00 to 8.00
CC1(C)Oc2ncnc(N)c2NC1c1ccc(-c2ccc(CC(=O)O)cc2)cc1 (stereo not drawn) [Example 2-54] | 267 °C (dec.) | 7.00 to 8.00
